# Earlier results in patent US12364989B2, “High throughput method and system for analyzing the effects of agents on planaria” (priority 2019, dated 2025).
# Assays:
# planarians = conditions: regenerating compared with intact animals
# planaria [1] = system: planaria
# planaria [2] = conditions: Hagstrom et al., Toxicological Sciences 2015
structure (smiles),measurement,setting,value
"C[S+](C)[O-] [DMSO, Dimethyl sulfoxide]",sensitivity of regenerating planarians,planarians,increased sensitivity
"CN(C)C=O [N,N-dimethylformamide]",effect on auricle regeneration,"planaria [1]; morphological endpoint, Zhang et al., Toxicological and Industrial Health 2013",effect
CCO [ethanol],sensitivity of regenerating planarians,planarians,increased sensitivity
CC1(C)C(C=C(Cl)Cl)C1C(=O)OCc1cccc(Oc2ccccc2)c1 (centres unmarked) [permethrin],eye reappearance,"planaria [1]; Hagstrom et al., Toxicological Sciences 2015",did delay
same,blastema growth rate,planaria [2],did not affect
